The target of assay [1] is immobilized CRBN protein (cereblon) (Homo sapiens (Human), UniProt Q96SW2). Briefly: Surface plasmon resonance (SPR) KD determination on immobilized cereblon. The settings on record: average of at least N=2, 1:1 fit, read-out: KD Binding to immobilized CRBN protein in SPR assay. As to the method:
The surface plasmon resonance (SPR) experiments were conducted on a Biacore3000 (GE Healthcare). Myc-tagged cereblon was immobilized on a carboxymethylated dextran surface (CM5) amine coupled to anti-Myc antibody to recognize the Myc tag. His-tagged cereblon protein was immobilized on a carboxymethylated dextran surface with nitriloacetic acid (NTA), taking advantage of NTA/Ni^2+ chelation. The prepared surface was allowed to equilibrate over three hours in running buffer (10 mM HEPES buffer @pH 7.4, 150 mM NaCl, 0.005% P20,2% DMSO).
All compounds were prepared in 100% DMSO stock plates with a top concentration of 5 mM in a 3× serial dilution. Compounds were transferred from the stock plate to the assay plate and diluted into running buffer containing no DMSO. All compounds were run as a six-concentration series with a final assay top concentration of 100 μM.
Data analysis was performed in Scrubber 2 (BioLogic software, Campbell, Australia). Blanks were subtracted and data was corrected for DMSO against a standard DMSO curve.

In a further assay the test system is androgen receptor (AR). Briefly: AR ELISA assay (androgen receptor degradation). The class given is cell-based. The settings on record: LNCaP and/or VCaP cells, 5 hours drug treatment; for AR Dmax: % degraded. As to the method:
5. AR ELISA Assay Protocol
Compounds were evaluated in this assay in LNCaP and/or VCaP cells utilizing similar protocols. The protocols used with VCaP cells are described below. The androgen receptor ELISA assay was performed using PathScan AR Sandwich ELISA (Cell Signaling Catalog #12850) according to the following assay steps:
VCaP cells were seeded at 40,000 cells/well at a volume of 100 µL/well in VCaP assay medium [Phenol red free RPMI (Gibco Cat #11835-030); 5% Charcoal Stripped (Dextran treated) FBS (Omega Scientific, Cat #FB-04); 1% penstrep (Life Technologies, Gibco Cat #: 10378-016)] in Corning 3904 plates. The cells were incubated for a minimum of 3 days. Cells were dosed with PROTACs diluted in 0.01% DMSO and the drug treatment was allowed for 5 hours.
AR ELISA (Cell Signaling) was performed as follows. 1×Cell Signaling Cell lysis buffer was made (Catalogue #9803; comes with the kit). Media from the treated wells is aspirated, and 100 μL 1×cell lysis buffer/well is added. The cells were placed on a shaker for 10 minutes at 4° C. Twenty microliters of lysate was transferred to 100 μl of Diluent in ELISA plate ([…]-0.075 μg/ml). The lysate-diluent mixture was shaken for 30 minutes at 37° C. Allow mouse AR antibody, anti-mouse antibody, TMB, and STOP solution to come to room temperature. The 1×ELISA buffer included in kit was made and loaded in the reservoir. Media from the plates was discarded, the ELISA plate tapped hard on paper towel, and washed 4×200 μl ELISA wash buffer using a plate washer.
One-hundred (100) μL/well of mouse AR detection Ab was added; the plates were covered and shaken at 37° C. for 1 hour; media was discarded from the plates, the plates were tapped on a paper towel, washed 4× with 200 μL ELISA wash buffer with a plate washer.
One-hundred (100) μL/well of anti-mouse—HRP conjugated Ab (comes with the kit) was added; the plates were covered and shaken at 37° C. for 30 minutes; the TMB reagent was allowed to come to room temperature; the media was discard from the plate, the plates were tapped on paper towel, washed 4× with 200 μL of ELISA wash buffer; the plates were tapped the plates on paper towel. One-hundred (100) μL of TMB was added and the plates shaken for 2 minutes—while watching for color development. One-hundred (100) μL Stop solution was added when light blue color developed. Plates were shaken and read at 450 nm.

The text below walks through data of US20250313547A1, “CEREBLON LIGANDS AND BIFUNCTIONAL COMPOUNDS COMPRISING THE SAME” (Arvinas Operations, Inc., priority 2017, published 2025).

Sequence of immobilized CRBN protein (cereblon) (Q96SW2 whole entry): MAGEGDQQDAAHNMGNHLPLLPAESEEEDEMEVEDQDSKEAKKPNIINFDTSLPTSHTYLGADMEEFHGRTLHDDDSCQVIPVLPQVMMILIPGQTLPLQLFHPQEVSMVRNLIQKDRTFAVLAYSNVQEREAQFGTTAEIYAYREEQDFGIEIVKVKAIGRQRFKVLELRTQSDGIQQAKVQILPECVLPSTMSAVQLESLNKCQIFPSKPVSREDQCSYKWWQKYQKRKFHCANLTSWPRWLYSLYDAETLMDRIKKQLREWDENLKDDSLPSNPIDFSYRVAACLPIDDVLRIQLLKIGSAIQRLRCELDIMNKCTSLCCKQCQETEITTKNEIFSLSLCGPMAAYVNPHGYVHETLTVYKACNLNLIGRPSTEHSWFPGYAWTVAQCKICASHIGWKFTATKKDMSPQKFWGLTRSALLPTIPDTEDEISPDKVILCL

As for `O=CN1CCC(N2C(=O)c3ccccc3C2=O)C(=O)N1` (centres unmarked) [compound 19], the Kd in assay [1] was over 100 µM. Still for that read-out and setting: with `Cc1cc(C(N)=O)[nH]c(=O)c1N1C(=O)c2ccccc2C1=O` [compound 41] the figure was over 100 µM; with `O=C1CCC(N2C(=O)c3ccc(F)cc3C2=O)C(=O)N1` (centres unmarked) [compound 17], over 100 µM. Still for that read-out and setting: under `N#Cc1ccc(N2C(=O)c3ccccc3C2=O)c(=O)[nH]1` [compound 44] stands 10 to 100 µM; under `O=C1CCC(N2Cc3cc(NCCCCCCO)c(F)cc3C2=O)C(=O)N1` (centres unmarked) [compound 5], 10 to 100 µM.

Regarding `Cc1ccncc1-n1cc(C#N)c(=O)[nH]c1=O` [compound 36], in assay [1], the Kd was over 100 µM. `N#Cc1ccc(O[C@H]2CC[C@H](NC(=O)c3ccc(N4CCC(CN5CCN(c6ccc(C(=O)NC7CCC(=O)NC7=O)cc6)CC5)CC4)nn3)CC2)cc1Cl` (some centres unmarked) [PROTAC-59, N-((1r,4r)-4-(3-chloro-4-cyanophenoxy)cyclohexyl)-6-(4-((4-(4-((2,6-dioxopiperidin-3-yl)carbamoyl)phenyl)piperazin-1-yl)methyl)piperidin-1-yl)pyridazine-3-carboxamide]: in the assay on androgen receptor (AR), the “AR Dmax” value is on record as “A (A > 75)” and the DC50 is under 1 nM. The matching figures for `CN(C(=O)c1ccc(OCCCCCN2CCN(c3ccc(C(=O)N[C@H]4C(C)(C)[C@H](Oc5ccc(C#N)c(Cl)c5)C4(C)C)cn3)CC2)cc1)C1CCC(=O)NC1=O` (mixture of isomers) [PROTAC-49, rac-N-((1r,3r)-3-(3-chloro-4-cyanophenoxy)-2,2,4,4-tetramethylcyclobutyl)-6-(4-(5-(4-((2,6-dioxopiperidin-3-yl)(methyl)carbamoyl)phenoxy)pentyl)piperazin-1-yl)nicotinamide]: “C (C <= 50)” and at least 100 nM.

For the compound `CC1(C)[C@H](NC(=O)c2ccc(N3CCN(CCCCOc4ccc(C(=O)NC5CCC(=O)NC5=O)nc4)CC3)nc2)C(C)(C)[C@H]1Oc1ccc(C#N)c(Cl)c1` (mixture of isomers) [PROTAC-51, rac-5-(4-(4-(5-(((1r,3r)-3-(3-chloro-4-cyanophenoxy)-2,2,4,4-tetramethylcyclobutyl)carbamoyl)pyridin-2-yl)piperazin-1-yl)butoxy)-N-(2,6-dioxopiperidin-3-yl)picolinamide], in the assay on androgen receptor (AR), the “AR Dmax” value was “C (C <= 50)” and the DC50 was under 1 nM.

On to `CC1(C)[C@H](NC(=O)c2ccc(CCCCN3CCN(c4cnn(C5CCC(=O)NC5=O)c(=O)c4)CC3)nc2)C(C)(C)[C@H]1Oc1ccc(C#N)c(Cl)c1` (some centres unmarked) [PROTAC-61, N-((1r,3r)-3-(3-chloro-4-cyanophenoxy)-2,2,4,4-tetramethylcyclobutyl)-6-(4-(4-(1-(2,6-dioxopiperidin-3-yl)-6-oxo-1,6-dihydropyridazin-4-yl)piperazin-1-yl)butyl)nicotinamide], for which, in the assay with androgen receptor (AR), the “AR Dmax” value is recorded as “B (50 < B <= 75)” and the DC50 is under 1 nM. For the compound `CC1(C)[C@H](NC(=O)c2ccc(N3CCC(CN4CCN(c5ccc6c(c5)C(=O)N(c5ccc(=O)[nH]c5)C6=O)CC4)CC3)cc2)C(C)(C)[C@H]1Oc1ccc(C#N)c(Cl)c1` [PROTAC-43, N-((1r,3r)-3-(3-chloro-4-cyanophenoxy)-2,2,4,4-tetramethylcyclobutyl)-4-(4-((4-(1,3-dioxo-2-(6-oxo-1,6-dihydropyridin-3-yl)isoindolin-5-yl)piperazin-1-yl)methyl)piperidin-1-yl)benzamide], in the assay with androgen receptor (AR), the “AR Dmax” value is “C (C <= 50)” and the DC50 is at least 100 nM. The matching figures for `CC1(C)[C@H](NC(=O)c2ccc(N3CCN(CCOc4cccc5c4CN(c4ccc(F)cc4F)C5=O)CC3)nc2)C(C)(C)[C@H]1Oc1ccc(C#N)c(Cl)c1` [PROTAC-39, N-((1r,3r)-3-(3-chloro-4-cyanophenoxy)-2,2,4,4-tetramethylcyclobutyl)-6-(4-(2-((2-(2,4-difluorophenyl)-1-oxoisoindolin-4-yl)oxy)ethyl)piperazin-1-yl)nicotinamide]: 0C (C <= 50) and at least 100 nM.

As for `CC1(C)[C@H](NC(=O)c2ccc(CCCCN3CCC4(CC3)CC(=O)N(C3CCC(=O)NC3=O)C4=O)cc2)C(C)(C)[C@H]1Oc1ccc(C#N)c(Cl)c1` (mixture of isomers) [PROTAC-78, rac-N-((1r,3r)-3-(3-chloro-4-cyanophenoxy)-2,2,4,4-tetramethylcyclobutyl)-4-(4-(2-(2,6-dioxopiperidin-3-yl)-1,3-dioxo-2,8-diazaspiro[4.5]decan-8-yl)butyl)benzamide], in the assay on androgen receptor (AR), the “AR Dmax” value is “C (C <= 50)” and the DC50 was at least 100 nM. The matching figures for `CCN(C(=O)c1ccc(OCCCCCN2CCN(c3ccc(C(=O)N[C@H]4C(C)(C)[C@H](Oc5ccc(C#N)c(Cl)c5)C4(C)C)cn3)CC2)cc1)C1CCC(=O)NC1=O` (mixture of isomers) [PROTAC-48, rac-N-((1r,3r)-3-(3-chloro-4-cyanophenoxy)-2,2,4,4-tetramethylcyclobutyl)-6-(4-(5-(4-((2,6-dioxopiperidin-3-yl)(ethyl)carbamoyl)phenoxy)pentyl)piperazin-1-yl)nicotinamide]: “C (C <= 50)” and at least 100 nM. Turning to `CC1(C)[C@H](NC(=O)c2ccc(N3CCC(CN4CCC5(CC4)CC(=O)N(C4CCC(=O)NC4=O)C5=O)CC3)cc2)C(C)(C)[C@H]1Oc1ccc(C#N)c(Cl)c1` (mixture of isomers) [PROTAC-75, rac-N-((1r,3r)-3-(3-chloro-4-cyanophenoxy)-2,2,4,4-tetramethylcyclobutyl)-4-(4-((2-(2,6-dioxopiperidin-3-yl)-1,3-dioxo-2,8-diazaspiro[4.5]decan-8-yl)methyl)piperidin-1-yl)benzamide], in the assay with androgen receptor (AR), the “AR Dmax” value is 6C (C <= 50) and the DC50 was at least 100 nM. Taken in the same sequence, the figures for `CC1(C)[C@H](NC(=O)c2ccc(N3CCC(CN4CCN(c5cnn(C6CCC(=O)NC6=O)c(=O)c5)CC4)CC3)cc2)C(C)(C)[C@H]1Oc1ccc(C#N)c(Cl)c1` (mixture of isomers) [PROTAC-62, rac-N-((1r,3r)-3-(3-chloro-4-cyanophenoxy)-2,2,4,4-tetramethylcyclobutyl)-4-(4-((4-(1-(2,6-dioxopiperidin-3-yl)-6-oxo-1,6-dihydropyridazin-4-yl)piperazin-1-yl)methyl)piperidin-1-yl)benzamide] were “B (50 < B <= 75)” and under 1 nM. The matching figures for `CC1(C)[C@H](NC(=O)c2ccc(N3CCN(CCCCCOc4ccc5c(-n6ccc(=O)[nH]c6=O)cncc5c4)CC3)nc2)C(C)(C)[C@H]1Oc1ccc(C#N)c(Cl)c1` [PROTAC-79, N-((1r,3r)-3-(3-chloro-4-cyanophenoxy)-2,2,4,4-tetramethylcyclobutyl)-6-(4-(5-((4-(2,4-dioxo-3,4-dihydropyrimidin-1(2H)-yl)isoquinolin-7-yl)oxy)pentyl)piperazin-1-yl)nicotinamide]: “C (C <= 50)” and 1 to 10 nM. The matching figures for `CC1(C)[C@H](NC(=O)c2ccc(N3CCC(CN4CCN(c5ccc6c(c5)C(=O)N(c5ccc(O)[nH]c5=O)C6=O)CC4)CC3)cc2)C(C)(C)[C@H]1Oc1ccc(C#N)c(Cl)c1` [PROTAC-45, N-((1r,3r)-3-(3-chloro-4-cyanophenoxy)-2,2,4,4-tetramethylcyclobutyl)-4-(4-((4-(2-(6-hydroxy-2-oxo-1,2-dihydropyridin-3-yl)-1,3-dioxoisoindolin-5-yl)piperazin-1-yl)methyl)piperidin-1-yl)benzamide]: “C (C <= 50)” and at least 100 nM. With `CC1(C)[C@H](NC(=O)c2ccc(N3CCN(CCOCCOc4cccc5c4CN(c4ccc(F)cc4F)C5=O)CC3)nc2)C(C)(C)[C@H]1Oc1ccc(C#N)c(Cl)c1` [PROTAC-40, rac-N-((1r,3r)-3-(3-chloro-4-cyanophenoxy)-2,2,4,4-tetramethylcyclobutyl)-6-(4-(2-(2-((2-(2,4-difluorophenyl)-1-oxoisoindolin-4-yl)oxy)ethoxy)ethyl)piperazin-1-yl)nicotinamide], in the assay on androgen receptor (AR), the “AR Dmax” value is “C (C <= 50)” and the DC50 is at least 100 nM.

As a reminder, the Kd is a measure of binding affinity in units of concentration. By DC50 is commonly meant the midpoint of the concentration-degradation curve. A higher DC50 goes with a less potent degrader.
